From patent publication US20160047819A1, “METHOD FOR DIAGNOSING VAGINAL INFECTIONS” (priority 2013, published 2016)

Key:
bacterial vaginosis = test: Remission of bacterial vaginosis at V3 by Amsel's criteria and Gram stain Nugent score; assay type: in vivo, human
Method: Also provided is a diagnostic kit for use characterizing at least one protein useful for identifying the status of a vaginal infection. The kit includes instructions for carrying out a method of diagnosing vaginal infection using mass spectrometry. The diagnostic method of the invention has been tested on vaginal fluids collected from women enrolled in a clinical study of 80 Belgian pre-menopausal, non-pregnant women, aged between 18 and 50 years were analyzed. At the screening visit (V1) diagnosis of health or BV was made using both Amsel's criteria and Gram stain Nugent scoring. Patients with Nugent score >3 and positive for at least 3 of 4 Amsel's criteria were considered positive for BV. According to this clinical evaluation, women were divided into 2 groups: healthy subjects (H), (n=41) and patients diagnosed for BV (n=39). Patients who were diagnosed for BV at the study visit V1 were included in a multicenter, double-blind, randomised, placebo-controlled study reported in U.S. Ser. No. 13/559,013 (EudraCT: 2009-011826-32), that was performed to compare the efficacy of different doses of rifaximin vaginal tablets versus placebo for the treatment of BV. These patients underwent a randomisation visit and were distributed into four treatment groups: • group A received 100 mg rifaximin vaginal tablet once daily for 5 days (n=10), • group B received 25 mg rifaximin vaginal tablet once daily for 5 days (n=10), • group C received 100 mg rifaximin vaginal tablet once daily for the first 2 days and placebo vaginal tablet for the remaining 3 days (n=9), and • group D received placebo vaginal tablet once daily for 5 days (n=10).
After 7 to 10 days from the end of the therapy a follow-up visit (V3) was performed. Remission was evaluated at V3 according to Amsel's criteria (<3) and Gram stain Nugent score ([…]).
(§1) Patients who were diagnosed for BV at the study visit V1 were included in a multicentre, double-blind, randomised, placebo-controlled study (EudraCT: 2009-011826-32), that was performed to compare the efficacy of different doses of rifaximin vaginal tablets versus placebo for the treatment of BV. The patients underwent a randomization visit and were distributed into 4 treatment groups: group A received 100 mg rifaximin vaginal tablet once daily for 5 days (n=10), group B received 25 mg rifaximin vaginal tablet once daily for 5 days (n=10), group C received 100 mg rifaximin vaginal tablet once daily for the first 2 days and placebo vaginal tablet for the remaining 3 days (n=9), group D received placebo vaginal tablet once daily for 5 days (n=10). Study medication was administered intra-vaginally at bedtime. After 7 to 10 days from the end of the therapy a follow-up visit (V3) was performed. Remission was evaluated at V3 according to Amsel's criteria (<3) and Gram stain Nugent score (≦3) (Table 1).
as §1, with “randomisation” for “randomization”

Atopobium = test: Real-time PCR of vaginal bacterial communities; assay type: in vivo
Method: (§2) The qPCR real-time quantitative PCR was used for the identification and quantification of bacterial groups involved in the imbalance that effects the vaginal microbiota, in particular to determine the concentrations of the principal bacterial groups which are known to be affected in the presence of BV such as Lactobacillus, Atopobium, Gardnerella vaginalis, Prevotella, Veillonella, Mobiluncus and Mycoplasma hominis.
(§3) qPCR was performed on DNA samples extracted from CVF of healthy women (H), women affected by BV at V1 (BV), women who were in remission after rifaximin treatment at V3 (R), and women who were not in remission after antibiotic or placebo treatment at V3 (N).
(§4) A total of 80 Belgian pre-menopausal, non-pregnant women, aged between 18 and 50 years were included in the present study. At the screening visit (V1) diagnosis of health or BV was made using both Amsel's criteria and Gram stain Nugent scoring. Patients with Nugent score >3 and positive for at least 3 of 4 Amsel's criteria were considered positive for BV. According to this clinical evaluation, women were split into 2 groups: healthy subjects (H), who had no signs of vaginal tract infection (n=41) and patients affected by BV (n=39).
as §1
(§5) Standardized vaginal rinsings with 2 mL of saline were collected for analysis at V1 and V3 by flushing and re-aspirating the fluid through a 22 Gauge needle in the left, central and right upper vaginal vaults. The vaginal rinsings were subsequently stored at −80° C. until use.
(§6) One mL of each vaginal rinsing was centrifuged at 9500 g for 15 min to separate the pellet, which was processed for bacterial DNA isolation, from the supernatant, used for protein extraction.
(§7) DNA amount was quantified using NanoDrop ND-1000 (NanoDrop® Technologies, Wilmington, Del.).
(§8) Real-time PCR was performed on DNA samples extracted from cervicovaginal fluid (CVF) collected from 41 healthy women (H) and 39 BV-affected women before (BV) and after rifaximin/placebo treatment R (11 women in remission) and N (28 women not in remission).
(§9) Specific primer sets targeted to 16S rRNA gene or 16S-23S rRNA spacer region were used to quantify the following genus or species: Lactobacillus, Gardnerella vaginalis, Atopobium, Prevotella, Veillonella, Mycoplasma hominis and Mobiluncus.

Gardnerella vaginalis = test: Real-time PCR of vaginal bacterial communities; assay type: in vivo
Method: as §2, §3, §4, §1, §5, §6, §7, §8, §9

Lactobacillus = test: Real-time PCR of vaginal bacterial communities; assay type: in vivo
Method: as §2, §3, §4, §1, §5, §6, §7, §8, §9

Mobiluncus = test: Real-time PCR of vaginal bacterial communities; assay type: in vivo
Method: as §2, §3, §4, §1, §5, §6, §7, §8, §9

Mycoplasma hominis = test: Real-time PCR of vaginal bacterial communities; assay type: in vivo
Method: as §2, §3, §4, §1, §5, §6, §7, §8, §9

Prevotella = test: Real-time PCR of vaginal bacterial communities; assay type: in vivo
Method: as §2, §3, §4, §1, §5, §6, §7, §8, §9

Veillonella = test: Real-time PCR of vaginal bacterial communities; assay type: in vivo
Method: as §2, §3, §4, §1, §5, §6, §7, §8, §9

[1] = group A: 100 mg vaginal tablet once daily for 5 days (n=10)
[2] = group B: 25 mg vaginal tablet once daily for 5 days (n=10)
[3] = group C: 100 mg vaginal tablet once daily for 2 days, then placebo 3 days (n=9)
[4] = R group: women in remission after rifaximin treatment at V3
[5] = R group: women in remission after rifaximin treatment at V3, qPCR

CO[C@H]1/C=C/O[C@@]2(C)Oc3c(C)c(O)c4c(O)c(c5c(nc6cc(C)ccn65)c4c3C2=O)NC(=O)/C(C)=C\C=C\[C@H](C)[C@H](O)[C@@H](C)[C@@H](O)[C@@H](C)[C@H](OC(C)=O)[C@@H]1C [rifaximin]
women in remission after treatment (bacterial vaginosis; [1]): 2 women
women not in remission after treatment (bacterial vaginosis; [1]): 8 women
women in remission after treatment (bacterial vaginosis; [2]): 5 women
women not in remission after treatment (bacterial vaginosis; [2]): 5 women
women in remission after treatment (bacterial vaginosis; [3]): 4 women
women not in remission after treatment (bacterial vaginosis; [3]): 5 women
women in remission (R), all treatment groups (bacterial vaginosis; of 39 BV-affected women after rifaximin/placebo treatment): 11 women
Atopobium concentration in R group compared to BV group (Atopobium; R group at V3 vs BV group, still higher than H group): significantly lower
Target DNA/genomic vaginal DNA (median), Atopobium (Atopobium; [4]): 4.86 ng/µg
% of women hosting Atopobium (Atopobium; [5]): 100%
G. vaginalis concentration in R group (Gardnerella vaginalis; R group at V3): very low concentrations
Target DNA/genomic vaginal DNA (median), G. vaginalis (Gardnerella vaginalis; [4]): 0.0 ng/µg
% of women hosting Gardnerella vaginalis (Gardnerella vaginalis; [5]): 45.5%
median value of Lactobacilli in R group relative to BV group (Lactobacillus; R group after antibiotic treatment vs BV group, higher): about 10 times
Target DNA/genomic vaginal DNA (median), Lactobacillus (Lactobacillus; [4]): 46.3 ng/µg
% of women hosting Lactobacillus (Lactobacillus; [5]): 100%
Mobiluncus quantification in R group (Mobiluncus; R group at V3): not quantified in any of the women
Target DNA/genomic vaginal DNA (median), Mobiluncus (Mobiluncus; [4]): 0.0 ng/µg
% of women hosting Mobiluncus (Mobiluncus; [5]): 0.0%
M. hominis in R group compared to BV group (Mycoplasma hominis; R group at V3 vs BV group): significant reduction
Target DNA/genomic vaginal DNA (median), Mycoplasma hominis (Mycoplasma hominis; [4]): 0.00156 ng/µg
% of women hosting Mycoplasma hominis (Mycoplasma hominis; [5]): 63.6%
Prevotella concentration in R group (Prevotella; R group at V3): very low concentrations
Target DNA/genomic vaginal DNA (median), Prevotella (Prevotella; [4]): 0.0451 ng/µg
% of women hosting Prevotella (Prevotella; [5]): 81.8%
Veillonella quantification in R group (Veillonella; R group at V3): not quantified in any of the women
Target DNA/genomic vaginal DNA (median), Veillonella (Veillonella; [4]): 0.0 ng/µg
% of women hosting Veillonella (Veillonella; [5]): 0.0%
